The values below come from ChEMBL document CHEMBL5608235, “Tricyclic Benzo[1,3]oxazinyloxazolidinones as Potent Antibacterial Agents against Drug-Resistant Pathogens” (J Med Chem, 2024).

One may read the Cmax as the highest concentration seen after dosing. In general, MIC refers to the smallest concentration in the dilution series that meets the test's criterion for growth inhibition. A word on the AUC(0-inf): it is total exposure, with the tail of the curve extrapolated. As usually defined, the MRT inf is the average time that molecules of a dose stay in the body. The IC50 is the concentration needed to halve the response being measured. Read a high IC50 as lower potency.

In data set [1] the test system is Staphylococcus aureus. Kind of data set: Antibacterial activity against methicillin resistant Staphylococcus aureus ATCC 33592 infected in cyclophosphamide-induced immunosuppressed Kunming mouse assessed as reduction in histopathological change in lung at 25 to 50 mg/kg,po administration measured after 24 hrs by hematoxylin and eosin staining based microscopy. It counts as functional, organism-based. The conditions noted are these: dose 25-50 mg/kg.

Data set [2] can be described thus: Cmax in BALB/c mouse at 10 mg/kg,po administration measured upto 24 hrs by LC-MS/MS analysis. Type of data set: ADME, organism-based. Conditions: in vivo.
Data set [3] deals with Staphylococcus aureus. The experiment in a line: Antibacterial activity against methicillin resistant Staphylococcus aureus ATCC 33592 infected in cyclophosphamide-induced immunosuppressed Kunming mouse assessed as increase in white blood cell at 25 to 50 mg/kg,po administration measured after 7 days by Giemsa staining based analysis. Type of data set: functional, organism-based. Conditions: dose 25-50 mg/kg, time 7.0 day.

The subject of data set [4] is Enterococcus faecalis. The experiment in a line: Antibacterial activity against Enterococcus faecalis ATCC29212 assessed as inhibition of bacterial growth incubated for 18 hrs by microdilution broth assay. Type of data set: functional.
A short description of data set [5]: Terminal half life in BALB/c mouse at 10 mg/kg,po administration measured upto 24 hrs by LC-MS/MS analysis. Conditions: in vivo, read-out: beta t1/2 (converted). Type of data set: ADME, organism-based.
Data set [6] concerns Staphylococcus aureus. The experiment in a line: Antibacterial activity against methicillin resistant Staphylococcus aureus ATCC 33592 infected in cyclophosphamide-induced immunosuppressed Kunming mouse by measuring survival rate of mouse at 50 mg/kg,po administration measured for 7 days. Type of data set: functional. Conditions: ATCC 33592, 168 h, time 7 day.
The nature of data set [7]: AUC (0 to infinity) in BALB/c mouse at 10 mg/kg,po administration measured upto 24 hrs by LC-MS/MS analysis. It counts as ADME, organism-based. Conditions: BALB/c, in vivo.
Data set [8] in a line: MRT (0 to infinity) in BALB/c mouse at 1 mg/kg,iv administration measured upto 24 hrs by LC-MS/MS analysis. It counts as ADME, organism-based. The conditions noted are these: in vivo.
The test system of data set [9] is Enterococcus faecalis. Kind of data set: Antibacterial activity against Linezolid resistant Enterococcus faecalis clinical isolate 20-2 assessed as inhibition of bacterial growth incubated for 7 days by alamar blue assay. It counts as functional. Conditions: clinical isolate 20-2, 168 h, time 7 day. For orientation: Alamar Blue is a resazurin reagent that responds to reducing activity.

In data set [10] the test system is Staphylococcus aureus. The experiment in a line: Antibacterial activity against methicillin resistant Staphylococcus aureus ATCC 33592 infected in cyclophosphamide-induced immunosuppressed Kunming mouse assessed as reduction in bacterial load in spleen at 10 to 50 mg/kg,po administration measured after 24 hrs by hematoxylin and eosin staining based microscopy. Type of data set: functional, organism-based. The conditions noted are these: dose 10-50 mg/kg.

For data set [11], the system named is Staphylococcus aureus. Kind of data set: Antibacterial activity against Staphylococcus aureus ATCC25923 assessed as inhibition of bacterial growth incubated for 18 hrs by microdilution broth assay. It counts as functional.
The subject of data set [12] is Staphylococcus aureus. The experiment in a line: Antibacterial activity against methicillin resistant Staphylococcus aureus ATCC 33592 infected in cyclophosphamide-induced immunosuppressed Kunming mouse assessed as decrease in IL-1beta level at po administration measured after 24 hrs by ELISA. Type of data set: functional, organism-based. (ELISA stands for enzyme-linked immunosorbent assay.)

In data set [13] the test system is Staphylococcus aureus. Kind of data set: Bacteriostatic activity against methicillin resistant Staphylococcus aureus ATCC 33592 at 1 times MIC incubated for 2 to 24 hrs by time-kill assay. It counts as functional, organism-based. Conditions: time 2-24 hrs.
Data set [14] concerns Cell membrane. Kind of data set: Disruption of cell membrane integrity in Staphylococcus aureus ATCC 25923 assessed as increase in blue fluorescence at 1 ug/ml incubated for 1 hr by […] and propidium iodide double staining based confocal microscopic analysis. It counts as cell membranes. Conditions: dose 1.0 µg/ml.
The test system of data set [15] is Staphylococcus aureus. Kind of data set: Inhibition of protein synthesis in Staphylococcus aureus ATCC 29213 by translation assay. Type of data set: functional, organism-based.
The subject of data set [16] is Staphylococcus epidermidis. Kind of data set: Antibacterial activity against Staphylococcus epidermidis ATCC12228 assessed as inhibition of bacterial growth incubated for 18 hrs by microdilution broth assay. Type of data set: functional. In general terms: Dilution methods test growth across graded concentrations, often in twofold steps.
For data set [17], the system named is Cell membrane. The experiment in a line: Disruption of cell membrane integrity in Staphylococcus aureus ATCC 25923 assessed as increase in blue fluorescence at 0.5 ug/ml incubated for 1 hr by […] and propidium iodide double staining based confocal microscopic analysis. Type of data set: cell membranes. Conditions: dose 0.5 µg/ml.
The subject of data set [18] is Staphylococcus aureus. The experiment in a line: Induction of resistant development in methicillin resistant Staphylococcus aureus ATCC 33592 assessed as fold increase in MIC at 0.5 to 4 ug/ml measured after 30 serial passages by broth microdilution analysis. It counts as functional. Conditions: dose 0.5-4 µg/ml.
Data set [19] deals with Enterococcus faecalis. Kind of data set: Antibacterial activity against Linezolid resistant Enterococcus faecalis clinical isolate 20-1 assessed as inhibition of bacterial growth incubated for 7 days by alamar blue assay. Conditions: clinical isolate 20-1, 168 h, time 7 day. Type of data set: functional.
In data set [20] the test system is Cell membrane. The experiment in a line: Disruption of cell membrane in methicillin resistant Staphylococcus aureus ATCC 33592 assessed as cell shrinkage at 0.5 ug/ml incubated for 6 hrs by Scanning electron microscopic analysis. It counts as cell membranes. The conditions noted are these: dose 0.5 µg/ml.
Data set [21] is described as follows: MRT (0 to infinity) in BALB/c mouse at 10 mg/kg,po administration measured upto 24 hrs by LC-MS/MS analysis. It counts as ADME, organism-based. Conditions: in vivo.
The test system of data set [22] is Staphylococcus epidermidis. The experiment in a line: Antibacterial activity against methicillin resistant Staphylococcus epidermidis clinical isolate 20-2 assessed as inhibition of bacterial growth incubated for 7 days by alamar blue assay. Type of data set: functional. Conditions: clinical isolate 20-2, 168 h, time 7 day.

SMILES strings stand for the structures. In brackets after ≈: the same amount, converted by molar mass. Activity calls are given as the source filed them.

On to `CC(=O)NC[C@@H]1OC(=O)N2Cc3cc(-c4ccc(C#N)cc4)c(F)cc3O[C@@H]12`, for which the result in data set [1], in data set [3], in [10], in [13], in data set [14] and in data set [17] was Active. The outcome in data set [20] was Active. Also, the peak concentration (Cmax) in data set [2] was 4.51 µg/mL. The MIC in data set [4] amounted to 1 mg/L (≈ 2.62 µM); in [9], 1 mg/L (≈ 2.62 µM); in [11], 0.5 mg/L (≈ 1.31 µM); in [16], 0.032 mg/L (≈ 0.0839 µM); in [19], 1 mg/L (≈ 2.62 µM); in data set [22], 0.06 mg/L (≈ 0.157 µM). In addition, in data set [5], the half-life was 11.9 h. Moreover, the survival at 50 mg/kg in [6] worked out at 100%. In data set [7], this molecule came in with an AUC(0-inf) of 83.5 µg·h/mL. The mean residence time (MRT inf) in data set [8] is 6.7 h; in data set [21], 17.3 h. Besides, the Activity entry in data set [12] is “Dose-Dependent Effect”. This molecule also yielded an IC50 in data set [15] of 1.5 mg/L (≈ 3.93 µM). In [18], the fold change (FC) was 8.
